SMILES strings stand for the structures.

One assay addresses KDR (Homo sapiens (Human), UniProt P35968). The assay can be described thus: Enzyme inhibition activity test for kinases other than Trk (selectivity test): KDR. In kind it is biochemical. The settings on record: test concentration 3 μM; read-out: Inhibition Rate (%) KDR. The protocol: (§1) A test substance (present compound or comparative compound) was dissolved in dimethylsulfoxide and further diluted with dimethylsulfoxide to prepare a solution having a concentration of 100 times the test concentration of 3 μM. The solution was further diluted to 25-fold with an assay buffer (20 mM HEPES, 0.01% Triton X-100, 2 mM DTT, pH 7.5) to obtain a test substance solution. In a similar manner a positive control substance solution was prepared with a positive control substance.
(§2) A 4-times concentration solution (5 μL) of the test substance prepared with the assay buffer, 5 μL of a 4-times concentration solution of substrate/ATP/metal (Mg) and 10 μL of a 2-times concentration solution of kinase were mixed in a well of a polypropylene 384-well plate and allowed to react at room temperature for 1 hour. The reaction was terminated by adding 60 μL of a Termination Buffer (QuickScout Screening Assist MSA; Carna Biosciences). The substrate peptide and the phosphorylated peptide in the reaction solution were separated and quantified. The kinase reaction was assessed from the product ratio (P/(P+S)) calculated from the height (S) of the peak of the substrate peptide and the height (P) of the peak of the phosphorylated peptide. Other kinases used in the kinase selectivity experiments were, for example, Abl, c-Met, b-Raf, c-Kit and KDR. The following Table 2 indicates substrates, substrate concentrations, ATP concentrations and positive control substances used in respective kinase enzyme inhibition activity tests.
(§3) The inhibition rate was calculated from the average signal intensity of the test wells containing respective test substances provided that the average signal intensity of control wells each containing all reaction components was 0% inhibition and the average signal intensity of background wells (without addition of the enzyme) was 100% inhibition.

For the next assay, the target named is b-Raf (Homo sapiens (Human), UniProt P15056). The assay can be described thus: Enzyme inhibition activity test for kinases other than Trk (selectivity test): b-Raf. Particulars: test concentration 3 μM; read-out: Inhibition Rate (%) b-Raf. In kind it is biochemical. As for the experimental part: as §1, §2, §3
The target in the next assay is c-Kit (Homo sapiens (Human), UniProt P10721). Briefly: Enzyme inhibition activity test for kinases other than Trk (selectivity test): c-Kit. Type of assay: biochemical. The settings on record: test concentration 3 μM; read-out: Inhibition Rate (%) c-Kit. As for the experimental part:
as §1, §2, §3

The next assay has as its target c-Met (Homo sapiens (Human), UniProt P08581). Briefly: Enzyme inhibition activity test for kinases other than Trk (selectivity test): c-Met. In kind it is biochemical. Particulars: test concentration 3 μM; read-out: Inhibition Rate (%) c-Met. As for the experimental part: as §1, §2, §3
The next assay has as its target Abl (Homo sapiens (Human), UniProt P00519). The assay can be described thus: Enzyme inhibition activity test for kinases other than Trk (selectivity test): Abl. In kind it is biochemical. Particulars: test concentration 3 μM; read-out: Inhibition Rate (%) Abl. As for the experimental part: as §1, §2, §3
Assay [1] has as its system NGF-induced vascular hyper permeability. The assay can be described thus: Suppression of rat NGF-induced vascular hyper permeability (in vivo test, Evans Blue). Particulars: oral, 12 hours after administration, read-out: Rates of Suppression for Vascular Hyper Permeability (%). As for the experimental part: TrkA-inhibiting activity of the present compound was evaluated in vivo. The present compound dissolved in a medium was orally administered (adminstered volume: 5 mL/kg) to male CD(SD)IGS rats (7- to 9-week old, Charles River laboratories Japan, Inc.) shaved on the back. A medium was orally administered (adminstered volume: 5 mL/kg) to the control and normal groups. After 6 or 12 hours of administration, 3 μg/mL of a NGF (Mouse 2.5s, Natural, Invitrogen) solution prepared in 0.1% BSA (Sigma-Aldrich)-containing saline was intracutaneously administered (dose; 50 μL/site) at 3 sites on the back of animals under halothane anesthesia. For the normal group, 0.1% BSA-containing saline was intracutaneously administered (dose; 50 μL/site) at 3 sites on the back. Immediately after intracutaneous administration, 1% Evans Blue (Tokyo Chemical Industry Co., Ltd.) was administered intravenously from tail (adminstered volume: 3 mL/kg). After 10 minutes of administration, the animals were sacrificed by bleeding due to incision of the abdominal aorta. The sites of intracutaneous administration on the back (3 sites) were excised and the skin samples were respectively transferred to the wells in a 48-well plate (Asahi Glass Co., Ltd.). Formamide (0.8 mL/well) was added to the plate and the plate was sealed and incubated overnight at 60° C. The formamide extraction solution (200 μL) was transferred to a 96-well plate and the absorbance (wavelength: 620 nm) of Evans Blue extracted in formamide was measured on an absorbance microplate reader (SpectraMAX 190, Molecular Devices Japan, K.K.). Standard samples of Evans Blue dissolved in formamide (0, 0.78, 1.56, 3.13, 6.25, 12.5, 25 and 50 μg/mL) were measured at the same time for the absorbance (wavelength: 620 nm) to generate a calibration curve. Based on the calibration curve and the absorbances of samples, the concentrations of Evans Blue in the sample was calculated. The concentrations of Evans Blue for three skin samples collected from one aminal were averaged to obtain the vale for the animal. The rate of suppression for rat NGF-induced vascular hyper permeability of the present compound was calculated according to the following Equation 4: Suppression rate (%)=(1−(AX−AN)/(AC−AN)}×100 Equation 4
wherein AX: the concentration of Evans Blue of the test compound (an average value of 3 samples from one animal);
AN: the concentration of Evans Blue of the normal group (an average value of 3 samples from one animal);
AC: the concentration of Evans Blue of the control group (an average value of 3 samples from one animal).

Sequence of KDR (P35968 20-1356): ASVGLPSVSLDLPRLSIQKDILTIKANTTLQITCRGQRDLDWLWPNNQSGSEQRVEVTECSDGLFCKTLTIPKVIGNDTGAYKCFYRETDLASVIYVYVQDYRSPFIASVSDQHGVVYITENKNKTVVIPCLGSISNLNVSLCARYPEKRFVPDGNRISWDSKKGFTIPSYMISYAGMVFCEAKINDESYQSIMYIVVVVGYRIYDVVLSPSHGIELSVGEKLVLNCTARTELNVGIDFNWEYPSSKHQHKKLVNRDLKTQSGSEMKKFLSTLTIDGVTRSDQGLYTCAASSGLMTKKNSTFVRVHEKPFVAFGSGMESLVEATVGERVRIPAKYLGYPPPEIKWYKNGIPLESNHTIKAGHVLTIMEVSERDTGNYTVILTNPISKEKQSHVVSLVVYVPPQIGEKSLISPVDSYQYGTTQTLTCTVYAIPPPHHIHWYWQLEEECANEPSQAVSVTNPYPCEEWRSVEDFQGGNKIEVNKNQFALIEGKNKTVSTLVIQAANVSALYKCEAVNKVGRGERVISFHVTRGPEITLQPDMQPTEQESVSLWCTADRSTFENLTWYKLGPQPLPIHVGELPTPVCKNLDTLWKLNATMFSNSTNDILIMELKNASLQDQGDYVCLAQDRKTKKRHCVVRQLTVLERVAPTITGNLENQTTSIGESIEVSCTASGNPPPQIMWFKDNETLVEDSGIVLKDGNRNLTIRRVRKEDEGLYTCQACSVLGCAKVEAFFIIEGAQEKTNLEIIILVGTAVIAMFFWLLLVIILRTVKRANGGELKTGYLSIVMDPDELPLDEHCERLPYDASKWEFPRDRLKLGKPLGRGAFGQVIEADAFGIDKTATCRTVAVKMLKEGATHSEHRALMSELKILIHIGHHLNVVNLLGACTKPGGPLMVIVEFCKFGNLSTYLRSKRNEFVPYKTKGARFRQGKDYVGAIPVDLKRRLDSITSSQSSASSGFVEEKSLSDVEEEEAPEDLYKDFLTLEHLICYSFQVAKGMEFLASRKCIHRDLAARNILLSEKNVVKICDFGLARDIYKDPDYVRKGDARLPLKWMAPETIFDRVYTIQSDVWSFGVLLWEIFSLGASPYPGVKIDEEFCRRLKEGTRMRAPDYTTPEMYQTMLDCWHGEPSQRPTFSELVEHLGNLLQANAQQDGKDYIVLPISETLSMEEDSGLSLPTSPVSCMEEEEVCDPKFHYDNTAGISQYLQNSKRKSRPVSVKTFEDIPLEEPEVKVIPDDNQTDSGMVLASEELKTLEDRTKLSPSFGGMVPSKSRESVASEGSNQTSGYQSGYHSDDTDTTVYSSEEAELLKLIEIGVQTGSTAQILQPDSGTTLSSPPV
Sequence of b-Raf (P15056 whole entry): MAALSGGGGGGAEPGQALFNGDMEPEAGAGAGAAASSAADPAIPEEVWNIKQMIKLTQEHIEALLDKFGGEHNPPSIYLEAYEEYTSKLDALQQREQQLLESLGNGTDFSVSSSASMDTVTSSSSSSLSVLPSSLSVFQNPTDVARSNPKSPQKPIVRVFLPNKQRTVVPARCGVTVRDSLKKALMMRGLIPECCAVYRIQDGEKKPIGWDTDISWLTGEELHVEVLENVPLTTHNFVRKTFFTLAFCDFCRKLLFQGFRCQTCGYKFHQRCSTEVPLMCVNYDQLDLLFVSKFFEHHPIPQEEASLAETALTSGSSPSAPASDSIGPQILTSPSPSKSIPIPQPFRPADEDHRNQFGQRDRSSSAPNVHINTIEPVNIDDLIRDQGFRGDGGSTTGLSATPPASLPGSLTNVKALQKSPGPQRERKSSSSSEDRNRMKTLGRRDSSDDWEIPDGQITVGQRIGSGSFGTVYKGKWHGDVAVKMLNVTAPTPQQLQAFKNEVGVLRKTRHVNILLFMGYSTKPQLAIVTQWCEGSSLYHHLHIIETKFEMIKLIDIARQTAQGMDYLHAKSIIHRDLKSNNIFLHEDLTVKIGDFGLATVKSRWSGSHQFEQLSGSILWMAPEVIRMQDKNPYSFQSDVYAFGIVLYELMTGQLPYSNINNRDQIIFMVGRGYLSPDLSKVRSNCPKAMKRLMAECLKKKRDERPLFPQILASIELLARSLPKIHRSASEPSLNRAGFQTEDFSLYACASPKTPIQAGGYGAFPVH
Sequence of c-Kit (P10721 26-976): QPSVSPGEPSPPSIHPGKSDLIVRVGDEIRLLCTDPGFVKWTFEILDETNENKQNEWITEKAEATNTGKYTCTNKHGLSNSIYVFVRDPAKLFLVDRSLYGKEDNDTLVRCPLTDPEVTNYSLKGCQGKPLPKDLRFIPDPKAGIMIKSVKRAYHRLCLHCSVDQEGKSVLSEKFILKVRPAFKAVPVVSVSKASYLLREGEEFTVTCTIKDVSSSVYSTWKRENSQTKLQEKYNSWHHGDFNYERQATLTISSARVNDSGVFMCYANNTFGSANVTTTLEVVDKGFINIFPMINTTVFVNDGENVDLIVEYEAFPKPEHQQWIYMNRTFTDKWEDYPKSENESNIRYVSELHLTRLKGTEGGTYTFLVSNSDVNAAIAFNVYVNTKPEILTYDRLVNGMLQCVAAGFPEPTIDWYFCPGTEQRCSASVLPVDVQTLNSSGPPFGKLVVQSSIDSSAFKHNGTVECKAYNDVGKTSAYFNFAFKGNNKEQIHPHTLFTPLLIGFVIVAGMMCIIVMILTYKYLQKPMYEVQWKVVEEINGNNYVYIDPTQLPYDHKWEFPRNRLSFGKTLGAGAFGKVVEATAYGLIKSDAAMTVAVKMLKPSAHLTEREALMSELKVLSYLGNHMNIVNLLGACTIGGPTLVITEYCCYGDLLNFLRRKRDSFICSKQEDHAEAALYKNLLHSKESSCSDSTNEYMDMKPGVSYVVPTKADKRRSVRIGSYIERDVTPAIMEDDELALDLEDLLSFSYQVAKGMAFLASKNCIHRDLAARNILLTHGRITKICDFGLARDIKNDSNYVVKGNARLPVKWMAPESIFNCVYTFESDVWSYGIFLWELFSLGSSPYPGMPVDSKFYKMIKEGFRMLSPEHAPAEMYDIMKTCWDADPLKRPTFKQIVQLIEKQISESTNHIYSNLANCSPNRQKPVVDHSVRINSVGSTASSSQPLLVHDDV
Sequence of Abl (P00519 whole entry): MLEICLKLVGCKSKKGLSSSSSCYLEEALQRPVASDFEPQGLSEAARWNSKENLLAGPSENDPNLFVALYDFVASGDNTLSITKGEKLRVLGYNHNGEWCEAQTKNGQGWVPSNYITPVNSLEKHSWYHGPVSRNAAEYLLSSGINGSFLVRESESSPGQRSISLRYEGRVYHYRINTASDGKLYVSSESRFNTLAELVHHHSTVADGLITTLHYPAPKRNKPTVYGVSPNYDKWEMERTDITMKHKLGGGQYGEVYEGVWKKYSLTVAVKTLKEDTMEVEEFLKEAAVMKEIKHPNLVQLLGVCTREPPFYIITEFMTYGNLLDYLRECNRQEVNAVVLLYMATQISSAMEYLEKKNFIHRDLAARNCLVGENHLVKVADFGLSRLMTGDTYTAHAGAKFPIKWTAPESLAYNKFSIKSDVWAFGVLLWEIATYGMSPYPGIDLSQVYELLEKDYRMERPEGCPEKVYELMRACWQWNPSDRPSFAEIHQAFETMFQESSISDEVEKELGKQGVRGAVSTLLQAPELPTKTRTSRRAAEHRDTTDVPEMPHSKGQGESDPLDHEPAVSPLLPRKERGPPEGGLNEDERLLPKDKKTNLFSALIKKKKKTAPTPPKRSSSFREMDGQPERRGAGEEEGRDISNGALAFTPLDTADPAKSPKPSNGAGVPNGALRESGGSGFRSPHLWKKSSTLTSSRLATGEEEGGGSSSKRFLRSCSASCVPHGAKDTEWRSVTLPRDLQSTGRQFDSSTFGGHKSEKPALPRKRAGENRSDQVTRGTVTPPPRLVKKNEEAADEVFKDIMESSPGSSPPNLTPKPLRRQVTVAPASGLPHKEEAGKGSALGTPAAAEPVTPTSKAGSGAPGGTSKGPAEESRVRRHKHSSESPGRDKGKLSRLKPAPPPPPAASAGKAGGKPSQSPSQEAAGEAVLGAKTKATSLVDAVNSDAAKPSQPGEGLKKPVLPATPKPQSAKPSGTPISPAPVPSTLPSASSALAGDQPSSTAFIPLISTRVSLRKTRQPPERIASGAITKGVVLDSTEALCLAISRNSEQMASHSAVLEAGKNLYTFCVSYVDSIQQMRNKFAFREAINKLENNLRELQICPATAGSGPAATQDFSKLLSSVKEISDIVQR

Usually inhibition stands for the percentage by which the read-out fell short of the control. Consider `O=C(Nc1cnc(Oc2ccc(-c3cnc(N4CCCC4=O)s3)cc2)nc1)Nc1cc(C(F)(F)F)ccc1-c1cccnc1` [Example 84-3, 1-(2-{4-[2-(2-oxo-1-pyrrolidinyl)-1,3-thiazol-5-yl]phenoxy}-5-pyrimidinyl)-3-[2-(3-pyridinyl)-5-(trifluoromethyl)phenyl]urea], for which the inhibition at 3 µM worked out at 5.2% at KDR; 36% on b-Raf; 28% on c-Kit; 11% at c-Met; 5.6% on Abl. Also, the inhibition in vivo at 1 mg/kg in assay [1] was determined as 94%.

The values are drawn from patent publication US9242977B2, “Trk-inhibiting compound” (ONO PHARMACEUTICAL CO., LTD., priority 2012, dated 2016).
